Test results reported in article PMC8874959 (Viruses, 2022).
Where two headings read alike, the source gives them in different places.

Legend:
[1] = test system: SARS-CoV-2 D614G
[2] = test system: SARS-CoV-2 D614G; remark: listed apart in the source

Which results are given for `CCN(CC)CCCC(C)Nc1ccnc2cc(Cl)ccc12` (centres unmarked) [Chloroquine]?
EC50 [1]: > 10 µM; EC90 [1]: > 10 µM; EC50 [2]: 1100 ± 70 nM; EC90 [2]: 3.5 ± 0.8 µM

How did the EC50 [2] turn out when `OC(c1cc(C(F)(F)F)nc2c(C(F)(F)F)cccc12)C1CCCCN1` (centres unmarked) [Mefloquine] was run?
The EC50 was 600 ± 30 nM.
